Consider nine compounds from ChEMBL document CHEMBL1131989 (Bioorg Med Chem Lett, 1999).

Molecules are shown by their SMILES. pEC50, pIC50: −log10 of the molar value.

For one assay, the species on record is Mus musculus. The assay is described as follows: Concentration of compound required for evaluating efficacy in mouse vas deferens (MVD). It counts as functional, organism-based.
Assay [1] concerns the target Delta-type opioid receptor (Homo sapiens, UniProt P41143). Put plainly: In vitro binding affinity towards Opioid receptor delta 1 was determined using […].
The target of the next assay is Mu-type opioid receptor (Homo sapiens, UniProt P35372). The assay is described as follows: In vitro binding affinity towards mu opioid receptors was determined using [3H][p-Cl-Phe]- 4] DPDPE or [3H]deltorphin II.
Mu-type opioid receptor, sequence (P35372 whole entry): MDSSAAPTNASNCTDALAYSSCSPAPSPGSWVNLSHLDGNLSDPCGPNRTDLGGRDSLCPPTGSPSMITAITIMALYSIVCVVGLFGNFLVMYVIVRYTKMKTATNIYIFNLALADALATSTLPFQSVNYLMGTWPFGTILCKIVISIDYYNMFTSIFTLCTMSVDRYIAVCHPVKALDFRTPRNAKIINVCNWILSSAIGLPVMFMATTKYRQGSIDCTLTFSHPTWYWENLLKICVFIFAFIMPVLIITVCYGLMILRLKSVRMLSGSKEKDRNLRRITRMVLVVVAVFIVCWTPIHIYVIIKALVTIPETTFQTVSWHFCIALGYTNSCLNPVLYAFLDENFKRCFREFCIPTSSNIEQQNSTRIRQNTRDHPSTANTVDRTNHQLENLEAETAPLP
The species named for another assay is Cavia porcellus. Put plainly: Concentration of compound required for evaluating efficacy in guinea pig ileum (GPI). It counts as functional, organism-based.

Delta-type opioid receptor, sequence (P41143 whole entry): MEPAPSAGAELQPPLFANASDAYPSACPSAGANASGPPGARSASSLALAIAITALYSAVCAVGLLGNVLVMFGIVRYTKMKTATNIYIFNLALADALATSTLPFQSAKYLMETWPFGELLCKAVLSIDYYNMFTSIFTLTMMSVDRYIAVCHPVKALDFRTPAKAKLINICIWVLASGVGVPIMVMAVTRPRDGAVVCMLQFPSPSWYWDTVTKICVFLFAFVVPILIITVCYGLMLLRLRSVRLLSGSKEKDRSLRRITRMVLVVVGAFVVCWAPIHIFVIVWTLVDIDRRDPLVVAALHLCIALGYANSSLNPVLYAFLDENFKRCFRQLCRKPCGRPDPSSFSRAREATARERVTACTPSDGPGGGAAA

On to `CCCC[C@@H](N)C(=O)NNC(=O)[C@H](Cc1ccccc1)NC(=O)CNC(=O)[C@@H](C)NC(=O)[C@@H](N)Cc1ccc(O)cc1`, for which the pEC50 is 7.02 in the assay listed under Mus musculus and 8.28 in the assay listed under Cavia porcellus. Moreover, the pIC50 is 7.15 in assay [1] and 8.23 on Mu-type opioid receptor.
For `C[C@@H](NC(=O)[C@@H](N)Cc1ccc(O)cc1)C(=O)NCC(=O)N[C@@H](Cc1c[nH]c2ccccc12)C(=O)NNC(=O)[C@H](N)Cc1ccccc1` the same measures were 6.89, 7.59, 7.34 and 8.08.
On to `CCCC[C@H](N)C(=O)NNC(=O)[C@H](Cc1ccccc1)NC(=O)CNC(=O)[C@@H](C)NC(=O)[C@@H](N)Cc1ccc(O)cc1`, for which the negative-log EC50 (pEC50) in the assay listed under Mus musculus was 7.70; in the assay filed under Cavia porcellus it was 7.62. For the same compound, the pIC50 in assay [1] was 7.68; at Mu-type opioid receptor, 8.89.
For `C[C@@H](NC(=O)[C@@H](N)Cc1ccc(O)cc1)C(=O)NCC(=O)N[C@@H](Cc1ccccc1)C(=O)NNC(=O)[C@H](N)Cc1ccccc1` the same measures were 7.57, 8.62, 7.82 and 9.13.
Consider `C[C@@H](NC(=O)[C@@H](N)Cc1ccc(O)cc1)C(=O)NCC(=O)N[C@@H](Cc1ccccc1)C(=O)NNC(=O)[C@H](N)Cc1ccc(O)cc1`, for which the negative-log EC50 (pEC50) is 7.35 in the assay listed under Mus musculus and 7.82 in the assay filed under Cavia porcellus. Moreover, the pIC50 is 7.80 in assay [1] and 8.80 at Mu-type opioid receptor.
For the compound `C[C@@H](NC(=O)[C@@H](N)Cc1ccc(O)cc1)C(=O)NCC(=O)N[C@@H](Cc1ccccc1)C(=O)NN`, the pEC50 in the assay filed under Mus musculus is 6.54; in the assay filed under Cavia porcellus, 7.05. Moreover, the values for the negative-log IC50 (pIC50) (in assay [1]; at Mu-type opioid receptor) were 6.64 and 8.33, respectively.
On to `C[C@@H](NC(=O)[C@@H](N)Cc1ccc(O)cc1)C(=O)NCC(=O)N[C@@H](Cc1ccccc1)C(=O)NNC(=O)[C@H](N)Cc1c[nH]c2ccccc12`, for which the negative logarithm of the EC50 (pEC50) is 7.82 in the assay listed under Mus musculus and 8.15 in the assay listed under Cavia porcellus. Besides, the pIC50 in assay [1] was 7.54; at Mu-type opioid receptor, 8.70.
Consider `C[C@@H](NC(=O)[C@@H](N)Cc1ccc(O)cc1)C(=O)NCC(=O)N[C@@H](Cc1ccccc1)C(=O)NNC(=O)[C@@H](N)Cc1ccccc1`, for which the pEC50 in the assay listed under Mus musculus is 7.49; in the assay listed under Cavia porcellus, 8.01. Moreover, the values for the pIC50 (in assay [1]; on Mu-type opioid receptor) were 7.52 and 9.06, respectively.
Consider `C[C@@H](NC(=O)[C@@H](N)Cc1ccc(O)cc1)C(=O)NCC(=O)N[C@@H](Cc1ccccc1)C(=O)NNC(=O)[C@H](Cc1ccccc1)NC(=O)CNC(=O)[C@@H](C)NC(=O)[C@@H](N)Cc1ccc(O)cc1` [BIPHALIN], for which the pEC50 was 7.57 in the assay listed under Mus musculus and 8.06 in the assay filed under Cavia porcellus. The compound further gave a negative logarithm of the IC50 (pIC50) at Mu-type opioid receptor of 8.85.

Usually pEC50 stands for the negative decadic logarithm of the EC50, by convention in mol/L. A higher pEC50 goes with a low EC50. The term pIC50 denotes the negative decadic logarithm of the IC50, by convention in mol/L.
